Measured values reported in article PMC11678869, “Functional Role of Odorant-Binding Proteins in Response to Sex Pheromone Component Z8-14:Ac in Grapholita molesta (Busck)” (Insects, 2024).

What was measured:
OFM male antennae = test: Electroantennogram (EAG) analysis; design: species or system Grapholita molesta; conditions: for EAG response of OFM males: 20, 200 and 2000 μg doses
Procedure: (§1) Electroantennogram (EAG) equipment (Syntech, Hilversum, The Netherlands) was used to record the antennal responses of the OFM and PFM adults to Z8-12:Ac, E8-12:Ac, Z8-12:OH, Z8-14:Ac, and Z10-14:Ac. These sex pheromone compounds were diluted with liquid paraffin to prepare a stimulus solution of 100 μg/μL, which was subsequently diluted to 10 and 1 μg/μL. Antenna from 3-day-old OFM and 2- to 4-day-old PFM virgin males were excised at its base, with the distal part of the terminal segment being removed. Then, the treated antenna was attached to electrode holders with SpectraR360 conducting gel. A stimulus controller (model CS-55, Syntegon Technology, Waiblingen, Germany) continuously supplied a humidified air stream at a rate of 500 mL/min. Then, 20 μL of each stimulus solution was adsorbed onto a twice-folded filter paper strip (0.5 cm × 4 cm) placed on the wide section of a l mL pipette tip, which served as an odorant cartridge. Vapor stimuli were delivered by an air compressor into the constant air stream described above, flowing in a copper delivery tube (i.d. 8 mm) with the outlet positioned approximately 1 cm from the antenna. The EAG amplitude tests of the OFM and PFM males’ responses to sex pheromones started with solvent control stimuli (20 μL of liquid paraffin), followed by stimulation with 20, 200, and 2000 μg doses (20 μL of 1.0, 10.0, and 100.0 μg/μL of liquid paraffin solutions, respectively) of stimulus in sequence. The solvent control was performed at the end of the run. To control for variations among antennae, each sample was tested on 10 antennae of different males. The EAG signals and data were analyzed using EAG 2000 software (Syntech, Hilversum, The Netherlands). The corrected EAG amplitude value = absolute EAG amplitude value − (EAGck1 + EAGck2)/2, where EAGck1 and EAGck2 represent the absolute EAG amplitude values of the solvent control before and after measuring each stimulus, respectively. The relative EAG response of the OFM and PFM males to the same doses of sex pheromones were subjected to an analysis of independent sample t-test (p = 0.05) using SPSS version 23.0 (IBM).

PFM male antennae = test: Electroantennogram (EAG) analysis; design: species or system Grapholita funebrana; conditions: 20, 200 and 2000 μg doses
Procedure: as §1

OFM males = test: Field trapping with delta traps, pear orchard; assay type: in vivo, Grapholita molesta; conditions: pear orchard; for Inhibition Rate of OFM Males: vs 100:4:0
Procedure: (§2) To determine the inhibitory effects on OFM male adults and the impact on the trapping effects of PFM male adults, varying amounts of Z8-14:Ac (0, 5, 10, 25, 50, 75, 100, 125, 150 μg) or Z10-14:Ac (0, 25, 50, 100, 150, 250, 350, 450, and 550 μg) were added to rubber septa loaded with a constant dosage of the main pheromone (500 μg of Z8-12:Ac and 20 μg of E8-12:Ac) of the PFM. Trapping experiments of Z8-14:Ac were carried out in peach and pear orchards in Yan’an and Xinjiang (China), respectively. Trapping tests of Z10-14:Ac were performed in pear orchards in Xinjiang (China). Each orchard had nine plots, with three plots in one field. Each plot consisted of a linear arrangement of traps loaded with a constant dosage of the main pheromones and different percentages of the secondary pheromone Z8-14:Ac or Z10-14:Ac of the PFM. Plots in the same field were placed 30 m apart, and fields were ≥1 km apart. The traps were hung 1.4 m from the ground on a suspension bracket between two rows of peach or pear trees from 10 June to 25 July 2021 in Xinjiang and from 15 June to 30 July 2021 in Yan’an. The positions of the traps within the plot were randomly arranged. Every 5 days, counts were taken, and the traps were rotated to the adjacent position to avoid any potential position effects. The septa loaded with sex pheromone components were replaced with new ones after every 15 days of suspension. The data were analyzed using a one-way ANOVA, and the differences in the average trapping of OFM and PFM males using sex attractants containing different amounts of Z8-14:Ac or Z10-14:Ac were further analyzed using Tukey’s HSD test, both of which were performed using SPSS 23.0.

PFM males = test: Field trapping with delta traps, pear orchard; assay type: in vivo, Grapholita funebrana
Procedure: as §2

[1] = Z8-12:Ac/E8-12:Ac/Z10-14:Ac 500/20/25 μg (100:4:5)
[2] = Z8-12:Ac/E8-12:Ac/Z10-14:Ac 500/20/50 μg (100:4:10)
[3] = Z8-12:Ac/E8-12:Ac/Z10-14:Ac 500/20/100 μg (100:4:20)
[4] = Z8-12:Ac/E8-12:Ac/Z10-14:Ac 500/20/150 μg (100:4:30)
[5] = Z8-12:Ac/E8-12:Ac/Z10-14:Ac 500/20/250 μg (100:4:50)
[6] = Z8-12:Ac/E8-12:Ac/Z10-14:Ac 500/20/350 μg (100:4:70)
[7] = Z8-12:Ac/E8-12:Ac/Z10-14:Ac 500/20/450 μg (100:4:90)
[8] = Z8-12:Ac/E8-12:Ac/Z10-14:Ac 500/20/550 μg (100:4:110)
[9] = more than 10% of Z10-14:Ac added to Z8-12:Ac and E8-12:Ac (100:4)

## CCC/C=C/CCCCCCCOC(C)=O [E8-12:Ac, (E)-8-dodecenyl acetate]
OFM male antennae
  EAG response of OFM males: higher sensitivity
PFM male antennae
  EAG response of PFM males: higher sensitivity

## CCC/C=C\CCCCCCCOC(C)=O [Z8-12:Ac, (Z)-8-dodecenyl acetate]
OFM male antennae
  EAG response of OFM males: higher sensitivity
PFM male antennae
  EAG response of PFM males: higher sensitivity

## CCC/C=C\CCCCCCCCCOC(C)=O [Z10-14:Ac, (Z)-10-tetradecenyl acetate]
OFM males; [1]
  Total OFM Males/Trap: 125.55 ± 14.47 ab Males/Trap
  Inhibition Rate of OFM Males: 35.04%
OFM males; [2]
  Total OFM Males/Trap: 97.92 ± 10.31 bc Males/Trap
  Inhibition Rate of OFM Males: 49.34%
OFM males; [3]
  Total OFM Males/Trap: 83.33 ± 9.82 cd Males/Trap
  Inhibition Rate of OFM Males: 56.89%
OFM males; [4]
  Total OFM Males/Trap: 33.56 ± 2.24 e Males/Trap
  Inhibition Rate of OFM Males: 82.64%
OFM males; [5]
  Total OFM Males/Trap: 31.28 ± 3.22 e Males/Trap
  Inhibition Rate of OFM Males: 83.82%
OFM males; [6]
  Total OFM Males/Trap: 37.49 ± 3.45 e Males/Trap
OFM males; [7]
  Total OFM Males/Trap: 23.64 ± 1.23 e Males/Trap
  Inhibition Rate of OFM Males: 87.77%
OFM males; [8]
  Total OFM Males/Trap: 29.69 ± 2.18 e Males/Trap
  Inhibition Rate of OFM Males: 84.64%
OFM males; [9]
  maximum reduction of the capture of OFM males: up to 87.77%
PFM males; [1]
  Total PFM Males/Trap: 121.32 ± 12.10 ab Males/Trap
PFM males; [2]
  Total PFM Males/Trap: 101.39 ± 7.72 b Males/Trap
PFM males; [3]
  Total PFM Males/Trap: 102.73 ± 10.21 b Males/Trap
PFM males; [4]
  Total PFM Males/Trap: 66.08 ± 8.27 c Males/Trap
PFM males; [5]
  Total PFM Males/Trap: 62.46 ± 5.63 c Males/Trap
PFM males; [6]
  Total PFM Males/Trap: 51.35 ± 7.21cd Males/Trap
PFM males; [7]
  Total PFM Males/Trap: 41.24 ± 5.10 d Males/Trap
PFM males; [8]
  Total PFM Males/Trap: 42.33 ± 3.95 d Males/Trap
PFM males; [9]
  maximum reduction of the capture of PFM males: ≤ 71.07%
OFM male antennae; 20 μg
  EAG values of OFM males compared with PFM males: absence of significant difference
OFM male antennae
  EAG response of OFM males: moderate EAG response
OFM male antennae; 200 and 2000 μg
  EAG values of OFM males compared with PFM males: significantly greater than that of PFM males
PFM male antennae
  EAG response of PFM males: moderate EAG response
